The subject of test [1] is M109 lung carcinoma. The experiment in a line: Antitumor activity in the M109 lung carcinoma tumor model. The conditions noted are these: for % Tumor-Free Mice after Initial Tumor Implantation: Study 40, footnote: percentage of animals that develop tumors following implantation on Day 0. It counts as in vivo, mouse. The method, then: (§1) Tumor cell lines were maintained in vitro. Treatments were initiated when the subcutaneous tumors reached a median size between 100-200 mm^3 (established model) or prior to detection (initiation model). Tumors were measured twice weekly and tumor size (mm^3) was calculated as (length×width^2)/2. Body weights were obtained weekly. The tumor models used in these studies are outlined in Table 1.
(§2) The dose levels, routes and dosing schedules are indicated for each particular study described below. Antibodies and chemotherapeutic agents were administered intraperitoneally (i.p.). Each treatment regimen consisted of a cohort of eight to ten mice. Anti-tumor activity, defined as percentage tumor growth inhibition, was calculated as follows: […]
The antitumor effects of CTLA-4 mAb and microtubule-stabilizing agents were also studied in the M109 lung carcinoma model, a tumor line which is not sensitive to the effect of CTLA-4 blockade. In these studies treatments with chemotherapeutic agents were initiated when tumors were palpable, on day 3 after tumor implantation. This regimen was selected to produce a measurable antitumor effect, which was not observed when treatments were initiated at a later time. As in the studies conducted in the SA1N and EMT-6 tumor lines, CTLA-4 mAb was dosed one day after treatment with chemotherapy.

For another test, the system named is SA1N fibrosarcoma. The experiment in a line: Antitumor activity in the SA1N fibrosarcoma tumor model. Conditions: for % TGI: IP every 4 days x3; for CR/Total # mice: complete regressions; for T-C: target size 500 mm^3. It counts as in vivo, mouse. On the procedure: as §1
The dose levels, routes and dosing schedules are indicated for each particular study described below. Antibodies and chemotherapeutic agents were administered intraperitoneally (i.p.). Each treatment regimen consisted of a cohort of eight to ten mice. Anti-tumor activity, defined as percentage tumor growth inhibition, was calculated as follows:
% Tumor Growth Inhibition=100−[(Tt/To)/(Ct/Co)]/100−(Ct/Co)
(§3) In addition, another parameter used to define efficacy was to determine time to tumor progression to target size (T−C), where the time (days) for the median tumor size of control (C) mice to reach target size was subtracted to the time for median tumor size of treated (T) mice to reach target size.
SA1N fibrosarcoma is an inherently immunogenic tumor line which is sensitive to the effects of CTLA-4 blockade. Two studies were conducted to determine the effect of CTLA-4 blockade in combination with ixabepilone or paclitaxel in this tumor model (see Table 1). Animals were implanted with SA1N cells subcutaneously and treatments were initiated when tumors reached 100-150 mm^3. Experimental groups consisted of cohorts of 8 mice. Ixabepilone, paclitaxel and CTLA-4 mab were administered intraperitoneally (IP) every 4 days for 3 doses. In the combination groups, CTLA-4 mab was administered one day after each chemotherapy treatment.

Another test has as its system EMT-6 mammary carcinoma. The experiment in a line: Antitumor activity in the EMT-6 mammary tumor model. The test is classed as in vivo, mouse. Conditions: for % Tumor-free Mice / T-C: Study 27; for T-C: treatment from day 3/4, every 4 days x3 IP, ixabepilone 8, paclitaxel 24, CTLA-4 mAb 20 mg/kg. On the procedure:
as §1, §2, §3

In the next test the test system is CT26 colon carcinoma. Put plainly: Antitumor activity in the CT26 colon tumor model. It counts as in vivo, mouse. The conditions noted are these: for % Complete Regressions/Total # mice: IP every 4 days x3, ixabepilone 8, paclitaxel 24, CTLA-4 mAb 20 mg/kg; for antitumor effect in words: text and FIG. 2. On the procedure: as §1, §2
Next, the antitumor effects of CTLA-4 mAb and nmicrotubule-stabilizing agents were studied in a model not sensitive to ixabepilone or paclitaxel, the CT26 colon carcinoma model.

Test [2] concerns A2780, HCT116, LS174T, HCT116/VM46, Pat-7, A2780Tax, Pat-21 tumor models. The experiment in a line: Preclinical pharmacology studies of Compound 1 in tumor models. It counts as in vivo.
In test [3] the test system is M109 lung carcinoma. Put plainly: M109 tumor rechallenge of tumor-free mice. It counts as in vivo, mouse.
Source text: To determine whether the combination of CTLA-4+ixabepilone produced a memory immune response able to reject a secondary tumor challenge, animals free of tumors by day 97 were re-challenge with a lethal M109 cell inoculum.
For test [4], the system named is SA1N fibrosarcoma, M109 lung carcinoma, EMT-6 mammary carcinoma, CT-26 colon carcinoma and B16 melanoma. Put plainly: Efficacy studies across murine tumor lines (summary). The test is classed as in vivo, mouse. Conditions: animals with complete regressions rechallenged with lethal dose of tumor cells.
Procedure: Efficacy studies were conducted in 3 different tumor lines implanted in immunocompetent mice: SAlN fibrosarcoma, MI09 lung carcinoma and EMT-6 mammary carcinoma. […] For the combination group, anti-CTLA-4 mAb was administered one day after each ixabepilone treatment. In selected studies, animals with complete tumor regressions were rechallenged with a lethal dose of tumor cells to determine the level of immune protection. In other studies, the combined efficacy of CTLA-4 mAb+ixabepilone was compared directly with CTLA-4 InAb+paclitaxel.
The effect of an anti-mouse CTLA-4 blocking antibody, the murine homolog of ipilimumab, was evaluated in multiple murine tumor models in combination with the microtubule-stabilizing agents paclitaxel (TAXOL®), and ixabepilone (IXEMPRA®). Efficacy studies were conducted in 5 different tumor lines: SA1N fibrosarcoma, M109 lung carcinoma, EMT-6 mammary carcinoma, CT-26 colon carcinoma and B16 melanoma. Ixabepilone, paclitaxel and CTLA-4 mAb were administered at their optimal dose and schedule: ixabepilone, 8 mg/kg; paclitaxel, 24 mg/kg, CTLA-4 mAb, 20 mg/kg every 4 days for 3 doses. For the combination group, anti-CTLA-4 mAb was administered one day after each ixabepilone or paclitaxel treatment. In selected studies, animals with complete tumor regressions were rechallenged with a lethal dose of tumor cells to determine the level of immune protection.
[5] abbreviates: Study 17, calculated Day 33, ixabepilone 8, paclitaxel 24, CTLA-4 mAb 20 mg/kg.
[6] abbreviates: Study 17, study terminated day 116.

We go through three compounds from patent publication US20140323533A1, “COMBINATION OF ANTI-CTLA4 ANTIBODY WITH TUBULIN MODULATING AGENTS FOR THE TREATMENT OF PROLIFERATIVE DISEASES” (BRISTOL-MYERS SQUIBB COMPANY, priority 2013, published 2014).

Values joined by “and” are separate entries in the source; they are usually repeats but may differ in a detail not shown here. Equal values may be shown once.

Turning to “5beta,20-Epoxy-1,2alpha,4,7beta, 10beta, 13alpha-hexahydroxytax-11-en-9-one 4,10-diacetate 2-benzoate 13-ester with (2R,3S)—N-benzoyl-3-phenylisoserine [Paclitaxel]”, the “antitumor effect in words” value in the test with M109 lung carcinoma [1] (FIG. 1) was “did not produce antitumor effects”; with SA1N fibrosarcoma (both SA1N studies), “variable effect”; in the test on EMT-6 mammary carcinoma, “ineffective”; with CT26 colon carcinoma, “neither paclitaxel or ixabepilone produced any measurable antitumor activity”. The “% Tumor-Free Mice after Initial Tumor Implantation” value with M109 lung carcinoma [1] was determined as 100%. For the same compound, the “% TGI” value with SA1N fibrosarcoma (Study 11, calculated Day 34, paclitaxel 24, CTLA-4 mAb 20 mg/kg) is 88%; in the test on SA1N fibrosarcoma (setting [5]), 0%. Further, the “CR/Total # mice” value in the test on SA1N fibrosarcoma (Study 11) was 3/8; in the test with SA1N fibrosarcoma (Study 17), 0/8. The “T-C” value was found to be 13 days in the test with SA1N fibrosarcoma (Study 11, study terminated day 52); 0 days with SA1N fibrosarcoma (setting [6]); 0 days in the test with EMT-6 mammary carcinoma. Besides, in the test on EMT-6 mammary carcinoma, the “% Tumor-free Mice” value came out at 0%. The “% Complete Regressions/Total # mice” value in the test with CT26 colon carcinoma is 0/10.
Regarding `C/C(=C\c1csc(C)n1)[C@@H]1C[C@@H]2O[C@]2(C)CCC[C@H](C)[C@H](O)[C@@H](C)C(=O)C(C)(C)[C@@H](O)CC(=O)N1` (relative stereo) [Compound 1, [1S-[1R*,3R*(E),7R*,10S*,11R*,12R*,16S*]]-7,11-dihydroxy-8,8,10,12,16-pentamethyl-3-[1-methyl-2-(2-methyl-4-thiazolyl)ethenyl]-4-aza-17-oxabicyclo[14.1.0]heptadecane-5,9-dione], in test [2] (oral vs parenteral administration), the “oral efficacy in words” value is “orally efficacious”. The “antitumor activity in words” value in test [2] (paclitaxel-sensitive and paclitaxel-resistant human tumor models) is “very impressive and broad spectrum of antitumor activity”.
Consider `C/C(=C\c1csc(C)n1)[C@@H]1C[C@@H]2O[C@]2(C)CCC[C@H](C)[C@H](O)[C@@H](C)C(=O)C(C)(C)[C@@H](O)CC(=O)N1` [Ixabepilone, (1S,3S,7S,10R,11S,12S,16R)-7,11-dihydroxy-8,8,10,12,16-pentamethyl-3-[(1E)-1-methyl-2-(2-methyl-4-thiazolyl)ethenyl]-17-oxa-4-azabicyclo[14.1.0]heptadecane-5,9-dione], for which, in the test with M109 lung carcinoma [1], the “treated animals in which tumor growth was inhibited” value was determined as 50% and the “% Tumor-Free Mice after Initial Tumor Implantation” value is on record as 50%. Also, the “% mice developing tumors after rechallenge” value in the test with M109 lung carcinoma [3] (Study 40, footnote: percentage of mice that develop tumors after tumor rechallenge on Day 95) is 75%. Further, in the test on M109 lung carcinoma [3] (tumor-free mice re-challenged with lethal M109 inoculum), the “mice that developed tumors after rechallenge, percent” value amounted to 80%. Besides, the “mice that developed tumors after rechallenge” value with M109 lung carcinoma [3] (tumor-free mice re-challenged with lethal M109 inoculum, count) is recorded as 4 out of 5. In the test on SA1N fibrosarcoma (Study 9), the “CR/Total # mice, percentage in parentheses (% CR)” value was “(37.5) %”; the “CR/Total # mice” value is 3 out of 8 and 3/8. In addition, the “% TGI” value in the test with SA1N fibrosarcoma (Study 9, calculated Day 36, ixabepilone 8 mg/kg, CTLA-4 mAb 20 mg/kg) is recorded as 92%. In addition, the “T-C” value with SA1N fibrosarcoma (Study 9, study terminated day 39) is listed as 11 days. Besides, in the test on SA1N fibrosarcoma (Study 17), the “CR/Total # mice, percentage in parentheses (% CR)” value is “(0) %” and the “CR/Total # mice” value was 0/8. For the same compound, the “% TGI” value with SA1N fibrosarcoma (setting [5]) is on record as 83%. For the same compound, in the test on SA1N fibrosarcoma (setting [6]), the “T-C” value is given as 7 days. Moreover, in the test with EMT-6 mammary carcinoma, the “% Tumor-free Mice” value amounted to 20% and the “T-C” value came out at 19 days. Also, the “protection against tumor rechallenge in words” value in test [4] was “only partial protection”. Further, in the test with CT26 colon carcinoma, the “% Complete Regressions/Total # mice” value is 0/10 and the “antitumor effect in words” value was “neither paclitaxel or ixabepilone produced any measurable antitumor activity”.
